How the values were obtained:
Assay in all cases: relative viability (nuclei count vs DMSO), 5 days (fraction); higher = more cells survive
[1] = compound: C1=CC=C(C(=C1)C2=CC=C(C=C2)C3=CSC4=C3C(=C(C(=O)N4)C#N)O)O + Cc1cc(Nc2cc(N3CCN(C)CC3)nc(Sc3ccc(NC(=O)C4CC4)cc3)n2)n[nH]1 [Tozasertib] (partner 0.1 µM)
Procedure, shortened: (§1)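 Lung cancer cell lines in 1536-well plates were dosed by pin tool the day after seeding, either with one drug alone or with a fixed anchor-drug dose plus five library-drug doses (not always all listed) in √10 steps. After 5 days, cells were fixed and their nuclei stained in one step (final 0.05% Triton X-100, 1% formaldehyde, 1 ug/ml Hoechst), then counted on 4× images. Relative viability is the nuclei count in treated wells divided by that in vehicle wells. Values are medians of duplicate plates.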

[2] = compound: C1=CC=C(C(=C1)C2=CC=C(C=C2)C3=CSC4=C3C(=C(C(=O)N4)C#N)O)O + O=C(c1cc(Cc2n[nH]c(=O)c3ccccc23)ccc1F)N1CCN(C(=O)C2CC2)CC1 [Olaparib] (partner 8 µM)
Procedure, shortened: as §1

TGX 221 + Linsitinib = compound: CC1=CN2C(=O)C=C(N=C2C(=C1)C(C)NC3=CC=CC=C3)N4CCOCC4 [TGX 221] + C[C@]1(O)C[C@@H](c2nc(-c3ccc4ccc(-c5ccccc5)nc4c3)c3c(N)nccn32)C1 [Linsitinib] (partner 1 µM)
Procedure, shortened: as §1

TGX 221 + Phenformin = compound: CC1=CN2C(=O)C=C(N=C2C(=C1)C(C)NC3=CC=CC=C3)N4CCOCC4 [TGX 221] + N=C(N)NC(=N)NCCc1ccccc1 [Phenformin] (partner 250 µM)
Procedure, shortened: as §1

Cell Line	relative viability ([1]; first compound 0.08 µM)	relative viability ([1]; first compound 0.253 µM)	relative viability ([1]; first compound 0.8 µM)	relative viability ([1]; first compound 2.53 µM)	relative viability ([1]; first compound 8 µM)	relative viability ([2]; first compound 0.08 µM)	relative viability ([2]; first compound 0.253 µM)	relative viability ([2]; first compound 0.8 µM)	relative viability ([2]; first compound 2.53 µM)	relative viability ([2]; first compound 8 µM)	relative viability (TGX 221 + Linsitinib; first compound 0.08 µM)	relative viability (TGX 221 + Linsitinib; first compound 0.8 µM)	relative viability (TGX 221 + Linsitinib; first compound 2.53 µM)	relative viability (TGX 221 + Linsitinib; first compound 8 µM)	relative viability (TGX 221 + Phenformin; first compound 0.08 µM)	relative viability (TGX 221 + Phenformin; first compound 0.253 µM)	relative viability (TGX 221 + Phenformin; first compound 0.8 µM)	relative viability (TGX 221 + Phenformin; first compound 2.53 µM)	relative viability (TGX 221 + Phenformin; first compound 8 µM)	relative viability (TGX 221 + Linsitinib; first compound 0.253 µM)
LC-2-ad	0.502	0.539	0.487	0.429	0.425	0.702	0.899	0.701	0.744	0.76	0.786	0.731	0.668	0.595	0.556	0.526	0.569	0.67	0.599	
LCLC-97TM1	0.22	0.187	0.164	0.222	0.187	0.223	0.357	0.431	0.429	0.445	0.145	0.199	0.167	0.188	0.394	0.399	0.419	0.405	0.418	0.187
LCLC-103H	0.481	0.478	0.592	0.503	0.457	0.605	0.684	0.789	0.832	0.718	1.11	0.93	0.846	1.2	0.302	0.344	0.311	0.321	0.324	1.12
LK-2		0.152	0.149	0.198	0.198	0.568	0.899	0.883	0.822	0.753	0.523	0.627	0.625	0.625	0.382	0.474	0.498	0.348	0.567	0.548
LOU-NH91	0.669	0.715	0.612	0.637	0.645	0.877	1.01	0.872	0.959	0.877	0.974	0.931	0.917	0.794	0.679	0.74	0.692	0.784	0.674	0.912
LU99A	0.274	0.256	0.275	0.298	0.279	0.255	0.225	0.248	0.262	0.266	0.478	0.512	0.536	0.492	0.785	0.831	0.9	0.93	0.834	0.481
LXF-289	0.179	0.173	0.201	0.179	0.191	1.1	1.24	0.958	1.01	1.02	0.956	0.98	0.931	1	0.496	0.479	0.546	0.458	0.538	0.965
NCI-H23	0.395	0.32	0.373	0.449	0.316	0.282	0.298	0.37	0.336	0.273	0.471	0.525	0.531	0.477	0.814	0.699	0.811	0.836	0.773	0.532
NCI-H322M	0.487	0.426	0.487	0.497	0.444	0.69	0.742	0.863	0.519	0.748	0.849	0.708	0.698	1.02	0.761	0.735	0.715	0.758	0.682	0.732
NCI-H358	0.107	0.112	0.104	0.0911	0.114	0.4	0.654	0.531	0.562	0.587	0.757	0.732	0.65	0.588	0.355	0.31	0.296	0.382	0.324	0.684
NCI-H441	0.801	0.855	0.815	0.61	0.768	0.548	0.539	0.64	0.716	0.462	0.623	0.485	0.571	0.548	0.791	0.911	0.79	0.785	1.09	0.644
NCI-H460	0.395	0.429	0.345	0.461	0.296	0.341	0.406	0.331	0.452	0.434	0.677	0.693	0.622	0.592	0.508	0.466	0.53	0.536	0.467	0.641
NCI-H520	0.409	0.417	0.432	0.367	0.441	0.283	0.318	0.363	0.365	0.347	0.929	0.779	0.679	0.63	0.469	0.352	0.355	0.379	0.315	0.767
NCI-H596	0.888	0.724	1.09	0.89	0.655	0.594	0.683	0.695	0.539	0.658	1.13	0.972	0.972	0.985	0.726	0.753	0.852	0.678	0.874	0.913
NCI-H647	0.2	0.608	0.366	0.314	0.246		0.648	0.677	0.776	0.421	0.915	1	0.749	0.611	0.457	0.414	0.405	0.427	0.457	0.948
NCI-H650	0.62	0.821	0.637	0.837	0.683	0.42	0.375	0.402	0.495	0.432	0.732	0.779	0.772	0.713	0.433	0.461	0.404	0.417	0.439	0.885

Reference: the supplement of paper PMC10307832
